One assay has as its system Cryptococcus neoformans. As to the kind of experiment: Expected efficacy of antifungal agents. Conditions: expected efficacy against Cryptococcus neoformans.
The next assay concerns Histoplasma capsulatum. Conditions: expected efficacy against Histoplasma capsulatum.
The subject of a further assay is Coccidioides immitis. Conditions: expected efficacy against Coccidioides immitis.
The test system of another assay is Aspergillus terreus. Description: Expected efficacy of antifungal agents. Conditions: expected efficacy against Aspergillus terreus.
A further assay concerns Aspergillus flavus. As to the kind of experiment: Expected efficacy of antifungal agents. Conditions: expected efficacy against Aspergillus flavus.
A further assay concerns Aspergillus niger. As to the kind of experiment: Expected efficacy of antifungal agents. The note with it: expected efficacy against Aspergillus niger.
The next assay has as its system Leishmania infantum. As to the kind of experiment: Expected efficacy of antifungal agents. Conditions: expected efficacy against Leishmania infantum.
A further assay deals with Aspergillus fumigatus. Description: Expected efficacy of antifungal agents. Conditions: expected efficacy against Aspergillus fumigatus.
In the next assay the test system is Candida species. Description: Expected efficacy of antifungal agents. The note with it: expected efficacy against Candida species.
For a further assay, the system named is Blastomyces dermatitidis. Description: Expected efficacy of antifungal agents. Conditions: expected efficacy against Blastomyces dermatitidis.
The next assay deals with Leishmania donovani. Description: Expected efficacy of antifungal agents. The note with it: expected efficacy against Leishmania donovani.
Assay [1] relates to Paracoccidioides brasiliensis. As to the kind of experiment: Expected efficacy of antifungal agents. Conditions: expected efficacy against Paracoccidioides brasiliensis.
For a further assay, the system named is Fusarium species. As to the kind of experiment: Expected efficacy of antifungal agents. Conditions: expected efficacy against Fusarium species.
The subject of a further assay is Scedosporium apiospermum. Description: Expected efficacy of antifungal agents. The note with it: expected efficacy against Scedosporium apiospermum.
In the next assay the test system is Streptococcus agalactiae. As to the kind of experiment: Expected efficacy of antibiotic agents. The note with it: expected efficacy against Streptococcus agalactiae; Gram: pos.
The subject of a further assay is Brucella species. The note with it: expected efficacy against Brucella species; Gram: neg.
For another assay, the system named is Corynebacterium jeikeium. Description: Expected efficacy of antibiotic agents. Conditions: expected efficacy against Corynebacterium jeikeium; Gram: pos.
In another assay the test system is Pseudomonas aeruginosa. Description: Expected efficacy of antibiotic agents. The note with it: expected efficacy against Pseudomonas aeruginosa; Gram: neg.
For assay [2], the system named is Corynebacterium urealyticum. As to the kind of experiment: Expected efficacy of antibiotic agents. The note with it: expected efficacy against Corynebacterium urealyticum; Gram: pos.
Another assay deals with Mycoplasma pneumoniae. As to the kind of experiment: Expected efficacy of antibiotic agents. The note with it: expected efficacy against Mycoplasma pneumoniae; Gram: n/a.
Another assay deals with Peptostreptococcus. Description: Expected efficacy of antibiotic agents. The note with it: expected efficacy against Peptostreptococcus; Gram: pos.
In the next assay the test system is Chlamydia psittaci. Conditions: expected efficacy against Chlamydia psittaci; Gram: n/a.
The subject of a further assay is Chlamydia trachomatis. As to the kind of experiment: Expected efficacy of antibiotic agents. Conditions: expected efficacy against Chlamydia trachomatis; Gram: n/a.
The next assay has as its system Enterobacter cloacae. As to the kind of experiment: Expected efficacy of antibiotic agents. The note with it: expected efficacy against Enterobacter cloacae; Gram: neg.
The subject of another assay is Enterococcus faecalis. Description: Expected efficacy of antibiotic agents. Conditions: expected efficacy against Enterococcus faecalis; Gram: pos.
The test system of a further assay is Bordetella pertussis. Description: Expected efficacy of antibiotic agents. The note with it: expected efficacy against Bordetella pertussis; Gram: neg.
In a further assay the test system is Legionella pneumophila. The note with it: expected efficacy against Legionella pneumophila; Gram: neg.
Another assay has as its system Pseudomonas fluorescens. Description: Expected efficacy of antibiotic agents. The note with it: expected efficacy against Pseudomonas fluorescens; Gram: neg.
A further assay deals with Enterobacter aerogenes. Description: Expected efficacy of antibiotic agents. Conditions: expected efficacy against Enterobacter aerogenes; Gram: neg.
A further assay deals with Enterococcus faecium. As to the kind of experiment: Expected efficacy of antibiotic agents. Conditions: expected efficacy against Enterococcus faecium; Gram: pos.
The next assay concerns Providencia stuartii. As to the kind of experiment: Expected efficacy of antibiotic agents. Conditions: expected efficacy against Providencia stuartii; Gram: neg.
For assay [3], the system named is Klebsiella (Calymmatobacterium). As to the kind of experiment: Expected efficacy of antibiotic agents. The note with it: expected efficacy against Klebsiella (Calymmatobacterium); Gram: neg.
Assay [4] concerns Viridans group streptococci. Description: Expected efficacy of antibiotic agents. Conditions: expected efficacy against Viridans group streptococci; Gram: pos.
Assay [5] relates to Staphylococcus aureus (MSSA). Description: Expected efficacy of antibiotic agents. Conditions: expected efficacy against Staphylococcus aureus (MSSA); Gram: pos.
Assay [6] deals with Staphylococcus epidermidis. As to the kind of experiment: Expected efficacy of antibiotic agents. Conditions: expected efficacy against Staphylococcus epidermidis; Gram: pos.
For assay [7], the system named is Methicillin resistant staph aureus (MRSA). As to the kind of experiment: Expected efficacy of antibiotic agents. The note with it: expected efficacy against Methicillin resistant staph aureus (MRSA); Gram: pos.
In another assay the test system is Moraxella catarrhalis. As to the kind of experiment: Expected efficacy of antibiotic agents. Conditions: expected efficacy against Moraxella catarrhalis; Gram: neg.
For the next assay, the system named is Streptococcus pyogenes. As to the kind of experiment: Expected efficacy of antibiotic agents. Conditions: expected efficacy against Streptococcus pyogenes; Gram: pos.
The subject of another assay is Proteus vulgaris. Description: Expected efficacy of antibiotic agents. The note with it: expected efficacy against Proteus vulgaris; Gram: neg.
A further assay relates to Streptococcus pneumoniae. Description: Expected efficacy of antibiotic agents. The note with it: expected efficacy against Streptococcus pneumoniae; Gram: pos.
Another assay concerns Clostridium difficile. Description: Expected efficacy of antibiotic agents. The note with it: expected efficacy against Clostridium difficile; Gram: anaer.
The next assay concerns Bacteroides fragilis. Description: Expected efficacy of antibiotic agents. Conditions: expected efficacy against Bacteroides fragilis; Gram: anaer.
The next assay has as its system Enterobacter sakazakii. As to the kind of experiment: Expected efficacy of antibiotic agents. The note with it: expected efficacy against Enterobacter sakazakii; Gram: neg.
For assay [8], the system named is Haemophilus parainfluenzae. As to the kind of experiment: Expected efficacy of antibiotic agents. Conditions: expected efficacy against Haemophilus parainfluenzae; Gram: neg.
The next assay has as its system Chlamydia pneumoniae. Description: Expected efficacy of antibiotic agents. The note with it: expected efficacy against Chlamydia pneumoniae; Gram: n/a.
For a further assay, the system named is Klebsiella pneumoniae. As to the kind of experiment: Expected efficacy of antibiotic agents. The note with it: expected efficacy against Klebsiella pneumoniae; Gram: neg.
For another assay, the system named is Klebsiella oxytoca. Description: Expected efficacy of antibiotic agents. The note with it: expected efficacy against Klebsiella oxytoca; Gram: neg.
Another assay relates to Serratia marcescens. Description: Expected efficacy of antibiotic agents. The note with it: expected efficacy against Serratia marcescens; Gram: neg.
The subject of a further assay is Neisseria meningitidis. Description: Expected efficacy of antibiotic agents. Conditions: expected efficacy against Neisseria meningitidis; Gram: neg.
For the next assay, the system named is Neisseria gonorrhoeae. Description: Expected efficacy of antibiotic agents. The note with it: expected efficacy against Neisseria gonorrhoeae; Gram: neg.
The next assay deals with Providencia rettgeri. As to the kind of experiment: Expected efficacy of antibiotic agents. Conditions: expected efficacy against Providencia rettgeri; Gram: neg.
A further assay has as its system Escherichia coli. As to the kind of experiment: Expected efficacy of antibiotic agents. The note with it: expected efficacy against Escherichia coli; Gram: neg.
Another assay relates to Vibrio cholerae. As to the kind of experiment: Expected efficacy of antibiotic agents. Conditions: expected efficacy against Vibrio cholerae; Gram: neg.
For the next assay, the system named is Proteus mirabilis. Description: Expected efficacy of antibiotic agents. Conditions: expected efficacy against Proteus mirabilis; Gram: neg.
Another assay has as its system Diphtheroids. Description: Expected efficacy of antibiotic agents. Conditions: expected efficacy against Diphtheroids; Gram: pos.

For the compound `C[C@@H]1[C@H](O)[C@@H](C)/C=C/C=C/C=C/C=C/C=C/C=C/C=C/[C@H](O[C@@H]2O[C@H](C)[C@@H](O)[C@H](N)[C@@H]2O)C[C@@H]2O[C@](O)(C[C@@H](O)C[C@@H](O)[C@H](O)CC[C@@H](O)C[C@@H](O)CC(=O)O[C@H]1C)C[C@H](O)[C@H]2C(=O)O` [Amphotericin], the Efficacy entry with Cryptococcus neoformans, in the assay on Histoplasma capsulatum, in the assay with Coccidioides immitis, with Aspergillus terreus, in the assay on Aspergillus flavus and in the assay on Aspergillus niger was “yes” throughout. In addition, the Efficacy result (with Leishmania infantum; in the assay on Aspergillus fumigatus; with Candida species; in the assay with Blastomyces dermatitidis; with Leishmania donovani; in assay [1]) was “yes” in each case.
Consider `OC(Cn1cncn1)(Cn1cncn1)c1ccc(F)cc1F` [Fluconazole], for which the Efficacy entry in the assay with Cryptococcus neoformans, with Histoplasma capsulatum, in the assay on Coccidioides immitis, with Aspergillus flavus, in the assay on Aspergillus fumigatus and with Candida species was “yes” throughout. Besides, the Efficacy result with Blastomyces dermatitidis is listed as “yes”.
On to `C[C@@H](c1ncncc1F)[C@](O)(Cn1cncn1)c1ccc(F)cc1F` [Voriconazole], for which the Efficacy result in the assay on Fusarium species, in the assay on Aspergillus terreus, with Aspergillus flavus, in the assay with Aspergillus niger, with Aspergillus fumigatus and in the assay with Candida species was “yes” in each case. Moreover, in the assay with Scedosporium apiospermum, the Efficacy entry is “yes”.
On to Colistimethate, for which the Efficacy result with Streptococcus agalactiae is on record as “no”; in the assay with Brucella species, “no”; with Corynebacterium jeikeium it was “no”; with Pseudomonas aeruginosa, “yes”; in assay [2] it was “no”; in the assay on Mycoplasma pneumoniae, “no”. Moreover, the Efficacy entry with Peptostreptococcus is listed as “no”; in the assay with Chlamydia psittaci, “no”; with Chlamydia trachomatis, “no”; in the assay on Enterobacter cloacae, “yes”; with Enterococcus faecalis, “no”; in the assay with Bordetella pertussis, “no”. In addition, the Efficacy result with Legionella pneumophila is on record as “no”; in the assay on Pseudomonas fluorescens, “yes”; in the assay with Enterobacter aerogenes, “yes”; in the assay on Enterococcus faecium, “no”; in the assay with Providencia stuartii, “no”; in assay [3], “yes”. For the same compound, the Efficacy entry (in [4]; in [5]; in assay [6]; in [7]; in the assay on Moraxella catarrhalis; in the assay with Streptococcus pyogenes) was “no” each time. Also, the Efficacy result in the assay with Proteus vulgaris is reported as “no”; with Streptococcus pneumoniae, “no”; in the assay on Clostridium difficile it was “no”; in the assay with Bacteroides fragilis, “no”; with Enterobacter sakazakii, “yes”; in [8], “no”. In addition, the Efficacy result is reported as “no” in the assay on Chlamydia pneumoniae; “yes” with Klebsiella pneumoniae; “yes” in the assay on Klebsiella oxytoca; “no” in the assay on Serratia marcescens; “no” with Neisseria meningitidis; “no” in the assay with Neisseria gonorrhoeae. Besides, the Efficacy entry in the assay with Providencia rettgeri was “no”; in the assay with Escherichia coli, “yes”; in the assay on Vibrio cholerae, “no”; with Proteus mirabilis, “no”; in the assay with Diphtheroids, “no”.

The values above are taken from patent publication US20220265694A1, “COMPOSITIONS AND METHODS FOR TREATING AN INFECTION” (CMPD LICENSING, LLC, priority 2016, published 2022).
